Experimental data from patent US20080305534A1, “Novel Glycerol Dehydrogenase, Gene Therefor, and Method of Utilizing the Same” (priority 2004, published 2008).

Legend:
RCG = test: Substrate specificity of RCG (oxidation activity with NAD+); format: biochemical, Cellulomonas sp. strain KNK0102
Method: Oxidation activity was determined by adding 2 mM of coenzyme NAD^+, 10 mM of a compound shown in Table 2, and the enzyme solution to a 100 mM phosphate buffer (pH 8.0) to react at 30° C. for 3 min. followed by the measurement of an increase in absorbance at the wavelength of […]. In Table 2, relative activities are summarized, wherein the activity for glycerol is 100.

[1] = Action of RCG: stereoselective reduction of 1-chloro-3-hydroxyacetone; format: biochemical; conditions: reduction of 1-chloro-3-hydroxyacetone using NADH as a coenzyme
Method: Furthermore, optical purity of the resulting 3-chloro-1,2-propanediol was determined by high performance liquid chromatography after tosylation.

[2] = Optimum pH of RCG for reduction (activity to reduce dihydroxyacetone); format: biochemical; conditions: 10 mM dihydroxyacetone, 0.167 mM NADH, 30° C., pH 4 to pH 9
Method: In order to study the optimum pH of RCG for reduction, the activity to reduce dihydroxyacetone at pH 4 to pH 9 was determined. The enzyme activity was determined by adding 10 mM of the substrate dihydroxyacetone, 0.167 mM of coenzyme NADH, 50 mM of KCl, 50 mM of NH4Cl, and the enzyme solution to a buffer to react at 30° C. for 3 min. followed by the measurement of a decrease in absorbance at […]. As buffers, 100 mM acetic acid buffers (pH4.0 to pH 6.0), 100 mM phosphate buffers (pH 6.0 to pH 8.0), and 100 mM Tris-HCl buffers (pH 8.0 to 9.0) were used to measure the activity at pH 4 to pH 9.

[3] = Optimum pH of RCG for oxidation (activity to oxidize glycerol); format: biochemical; conditions: 0.1 M glycerol, 2 mM NAD+, 30° C., pH 6 to pH 11
Method: In order to study the optimum pH of RCG for oxidation, the activity to oxidize glycerol at pH6 to pH 11 was determined. The enzyme activity was determined by adding 0.1 M of the substrate glycerol, 2 mM of coenzyme NAD^+, 50 mM of KCl, 50 mM of NH4Cl, and the enzyme solution to a buffer to react at 30° C. for 3 min. followed by the measurement of an increase in absorbance at […]. As buffers, 100 mM phosphate buffers (pH 6.0 to pH 8.0), 100 mM Tris-HCl buffers (pH 8.0 to 9.0), and 100 mM carbonic acid buffers (pH 9.0 to pH 11.0) were used to measure the activity at pH 6 to pH 11.

[4] = format: biochemical
Method: Herein, the expression “having resistance to 1-chloro-3-hydroxyacetone” means that when 1-chloro-3-hydroxyacetone is added to a solution containing the polypeptide (the enzyme) of the present invention at the final concentration of 0.25% and the mixture is incubated at 30° C. for 20 hrs. followed by the determination of the activity to reduce 1-chloro-3-hydroxyacetone under the conditions described above, the resulting activity is 80% or more, preferably 85% or more, more preferably 90% or more of the activity determined without the pretreatment.
Likewise, the expression “having resistance to 3-chloro-1,2-propanediol” means that when the activity to reduce 1-chloro-3-hydroxyacetone is determined after incubation at 30° C. for 20 hrs. in the presence of 1% of 3-chloro-1,2-propanediol, the resulting activity is 80% or more, preferably 90% or more, more preferably 95% or more of the activity determined without the pretreatment.
In order to study the stability of RCG to 1-chloro-3-hydroxyacetone and to 3-chloro-1,2-propanediol, 1-chloro-3-hydroxyacetone was added at the final concentration of 0.25% to the enzyme solution and incubated at 30° C. followed by the measurement of the activity to reduce 1-chloro-3-hydroxyacetone by using the above enzyme solution. […]

[5] = substrate 10 mM, 2 mM NAD+, 100 mM phosphate buffer pH 8.0, 30° C., 3 min, activity for glycerol is 100

Molecule `OCCC(O)CO` (stereo not shown) [1,2,4-butanetriol] has a Relative activity (RCG; [5]) of 21%.

butanol gave a Relative activity (RCG; [5]) of 0%.

Work on `OCC(O)COc1ccccc1` (stereo not shown) [3-phenoxy-1,2-propanediol] yielded a Relative activity (RCG; [5]) of 9%.

With `CC(O)C(C)O` (stereo not shown) [2,3-butanediol] the Relative activity (RCG; [5]) was 64%.

Work on `OCCO` [ethylene glycol] yielded a Relative activity (RCG; pH 8) of 8%.

In the case of 2-butanol, the Relative activity (RCG; [5]) is reported as 0%.

Molecule `OCC(O)CBr` (stereo not shown) [3-bromo-1,2-propanediol] has a Relative activity (RCG; [5]) of 58%.

Molecule 1-amino-2-propanol has a Relative activity (RCG; [5]) of 12%.

Work on `OCC(O)CS` (stereo not shown) [3-mercapto-1,2-propanediol] yielded a Relative activity (RCG; [5]) of 129%.

Molecule `CO` [methanol] has a Relative activity (RCG; [5]) of 0%.

`CCCCC(O)CO` (stereo not shown) [1,2-hexanediol] showed a Relative activity (RCG; [5]) of 26%.

`CCCC(O)CO` (stereo not shown) [1,2-pentanediol] showed a Relative activity (RCG; [5]) of 153%.

Work on `CC(O)CO` (stereo not shown) [1,2-propanediol] yielded a Relative activity (RCG; [5]) of 142%.

Molecule `COCC(O)CO` (stereo not shown) [3-methoxy-1,2-propanediol] has a Relative activity (RCG; [5]) of 39%.

`OCCCO` [1,3-propanediol] gave a Relative activity (RCG; [5]) of 1%.

`CCC(O)CO` (stereo not shown) [1,2-butanediol] gave a Relative activity (RCG; [5]) of 129%.

For `OCC(O)CCl` (stereo not shown) [3-chloro-1,2-propanediol], the Relative activity (RCG; [5]) was 63%.

Work on `OCC(O)CO` [glycerol] yielded a Relative activity (RCG; [5]) of 100%.

`OCCCCO` [1,4-butanediol] gave a Relative activity (RCG; pH 8) of 1%.

`CC(O)CCCO` (stereo not shown) [1,4-pentanediol] showed a Relative activity (RCG; [5]) of 0%.

Work on `CC(O)CCO` (stereo not shown) [1,3-butanediol] yielded a Relative activity (RCG; [5]) of 3%.

In the case of `CSCC(O)CO` (stereo not shown) [3-methylthio-1,2-propanediol], the Relative activity (RCG; [5]) is reported as 120%.

With `CCO` [ethanol] the Relative activity (RCG; [5]) was 0%.

`CCCO` [propanol] showed a Relative activity (RCG; [5]) of 0%.

In the case of `CC(C)O` [isopropanol], the Relative activity (RCG; [5]) is reported as 0%.

For `OC(CCl)CCl` [1,3-dichloro-2-propanol], the Relative activity (RCG; [5]) was 0%.

B1: RCG: glycerol dehydrogenase derived from Cellulomonas sp. strain KNK0102, amino acid sequence SEQ ID NO: 1 (protein, listed as Cellulomonas sp.)
chain: MSEVPVRTLISPLRYVQARGALTRLGEFVRPIGTKPLLVADDVVWGIVQDTVAVSFQEQDLPRHRTGFGTYATAAEVDRLAREIDELGADVIVGIGGGSTIDAVKAAGHLRGIRWVSVPTVASTDAPCSALSVIYTEDGAFEEYRFFPHNPDLVLVDTGLVANAPVKFLVAGVGDALATWIEARAVAEANASTMAGGLPLVTGTALAQLSWDILWENALPAIDAVKNHLVTPAVEKVVEANTLLSGLGFESGGLAAAHAIHNGLTAAPQTHGLTHGQKVNIGSVTQLVLEGAPTEEIEEFVRFTTRVGLPNTLTEIGLTADDVHDLTRVAEAATAEGETIHAMPFPVRVPELVDALRSIEGFSRRVRAEAGLPEPVKHTAH
With B1 the “optical purity of (S)-3-chloro-1,2-propanediol formed” value [1] was 99.3 % e.e, the “optimum pH for reduction” value [2] was 6.0 and the “optimum pH for oxidation” value [3] was 9.0. For the same molecule, the “stability to 1-chloro-3-hydroxyacetone” value [4] was “very stable” and the “stability to 3-chloro-1,2-propanediol” value [4] was “very stable”.
